Experimental data taken from ChEMBL document CHEMBL6153048, “Synthesis and pharmacological evaluation of natural product diphyllin derivatives against head and neck squamous cell carcinoma” (Eur J Med Chem, 2025).

Columns and labels:
CAL-27 [1] = test: Antiproliferative activity against human CAL-27 cells assessed as inhibition rate at 0.1 uM incubated for 72 hrs by MTT assay relative to control; format: functional
[2] = Antiproliferative activity against human HN-6 cells assessed as inhibition rate at 0.1 uM incubated for 72 hrs by MTT assay relative to control; format: functional
[3] = Antiproliferative activity against human WSU HN-30 cells assessed as inhibition rate at 0.1 uM incubated for 72 hrs by MTT assay relative to control; format: functional; details: WSU-HN30
SCC-9 [4] = test: Antiproliferative activity against human SCC-9 cells assessed as inhibition rate at 0.1 uM incubated for 72 hrs by MTT assay relative to control; format: functional
SCC-25 [5] = test: Antiproliferative activity against human SCC-25 cells assessed as inhibition rate at 0.1 uM incubated for 72 hrs by MTT assay relative to control; format: functional
[6] = Antiproliferative activity against human L02 cells assessed as inhibition rate at 0.1 uM incubated for 72 hrs by MTT assay relative to control; format: toxicity, cell-based
CAL-27 [7] = test: Cytotoxicity against human CAL-27 cells incubated for 72 hrs by MTT assay; format: functional, cell-based; details: CAL-27, 72 h
[8] = Cytotoxicity against human HN-6 cells incubated for 72 hrs by MTT assay; format: functional, cell-based; details: HN-6, 72 h
[9] = Cytotoxicity against human […] incubated for 72 hrs by MTT assay; format: functional, cell-based; details: WSU-HN30, 72 h
SCC-9 [10] = test: Cytotoxicity against human SCC-9 cells incubated for 72 hrs by MTT assay; format: functional, cell-based; details: SCC-9, 72 h
SCC-25 [11] = test: Cytotoxicity against human SCC-25 cells incubated for 72 hrs by MTT assay; format: functional, cell-based; details: SCC-25, 72 h
[12] = Cytotoxicity against human L02 cells incubated for 72 hrs by MTT assay; format: toxicity, cell-based

Structure (SMILES)	inhibition at 0.1 µM (CAL-27 [1])	inhibition at 0.1 µM [2]	inhibition at 0.1 µM [3]	inhibition at 0.1 µM (SCC-9 [4])	inhibition at 0.1 µM (SCC-25 [5])	inhibition at 72 h, 0.1 µM [6]	IC50 (CAL-27 [7])	IC50 [8]	IC50 [9]	IC50 (SCC-9 [10])	IC50 (SCC-25 [11])	IC50 at 72 h [12]
COc1cc2c(OCCOCCNC(=O)C(F)(F)[C@]3(O)O[C@H](CO)[C@@H](O)[C@H](O)[C@H]3O)c3c(c(-c4ccc5c(c4)OCO5)c2cc1OC)C(=O)OC3	1.73%	4.3%	8.25%	13.9%	10.2%	1.74%						
CCC(CC)[C@@H]1OC[C@H]2O[C@@H](Oc3c4c(c(-c5ccc6c(c5)OCO6)c5cc(OC)c(OC)cc35)C(=O)OC4)[C@H](O)[C@@H](O)[C@@H]2O1	24.3%	55.1%	38.3%	43.2%	44.9%	8.83%						
COc1cc2c(O[C@@H]3O[C@@H]4CO[C@@H](c5cccc(C(F)(F)F)c5)O[C@H]4[C@H](O)[C@H]3O)c3c(c(-c4ccc5c(c4)OCO5)c2cc1OC)C(=O)OC3	37.4%	60.6%	40.9%	37.5%	33.6%	9.53%						
COc1cc2c(OCCN)c3c(c(-c4ccc5c(c4)OCO5)c2cc1OC)C(=O)OC3	6.31%	28.2%	18.9%	30.4%	10.8%	7.89%						
COc1cc2c(O[C@@H]3O[C@@H]4CO[C@@H](c5ccsc5)O[C@H]4[C@H](OC(C)=O)[C@H]3OC(C)=O)c3c(c(-c4ccc5c(c4)OCO5)c2cc1OC)C(=O)OC3	48.2%	61.1%	49.4%	45.8%	47.4%	9.07%	20.1 nM	11.6 nM	92.6 nM	16.1 nM	43.3 nM	> 10000 nM
COc1cc2c(O[C@@H]3O[C@@H]4CO[C@@H](c5cccs5)O[C@H]4[C@H](O)[C@H]3O)c3c(c(-c4ccc5c(c4)OCO5)c2cc1OC)C(=O)OC3	50.7%	56.3%	41.3%	54%	52.5%	7.19%	18.1 nM	68.1 nM	120 nM	31.5 nM	9.34 nM	> 10000 nM
COc1cc2c(O[C@@H]3O[C@@H]4CO[C@@H](C5CCCC5)O[C@H]4[C@H](O)[C@H]3O)c3c(c(-c4ccc5c(c4)OCO5)c2cc1OC)C(=O)OC3	8.02%	54.2%	40.5%	42%	49.1%	9.37%						
COc1cc2c(OCCOCCNC(=O)[C@@H]3CCC(=O)N3)c3c(c(-c4ccc5c(c4)OCO5)c2cc1OC)C(=O)OC3	29.5%	19.8%	15.9%	8.65%	18.5%	6.04%						
COc1cc2c(NC(=O)C(F)(F)[C@]3(OCc4ccccc4)O[C@H](COCc4ccccc4)[C@@H](OCc4ccccc4)[C@H](OCc4ccccc4)[C@H]3OCc3ccccc3)c3c(c(-c4ccc5c(c4)OCO5)c2cc1OC)C(=O)OC3	26.1%	12.7%	8.5%	14.7%	17.8%	3.29%						
COc1cc2c(OCCOCCOCCN)c3c(c(-c4ccc5c(c4)OCO5)c2cc1OC)C(=O)OC3	67.2%	29.5%	25.2%	31.5%	51.1%	18.2%	40.6 nM	94.6 nM	123 nM	130 nM	92.6 nM	7870 nM
COc1cc2c(OCCOCCNC(=O)C3CNCC(F)(F)C3)c3c(c(-c4ccc5c(c4)OCO5)c2cc1OC)C(=O)OC3 (centres undefined)	2.03%	10.2%	11.7%	25.6%	23.2%	10.6%						
COc1cc2c(NC(=O)C(F)(F)[C@]3(O)O[C@H](CO)[C@@H](O)[C@H](O)[C@H]3O)c3c(c(-c4ccc5c(c4)OCO5)c2cc1OC)C(=O)OC3	27.6%	13.1%	12.3%	19.4%	28.2%	4.58%						
COc1cc2c(OCCOCCNC(=O)C3=C[C@H](O)[C@H](O)[C@@H](O)C3)c3c(c(-c4ccc5c(c4)OCO5)c2cc1OC)C(=O)OC3	31.1%	27.2%	16.2%	22.2%	31.4%	5.67%						
COc1cc2c(NC(=O)C(F)(F)[C@]3(O)O[C@@H]4CO[C@@H](c5ccsc5)O[C@H]4[C@H](O)[C@H]3O)c3c(c(-c4ccc5c(c4)OCO5)c2cc1OC)C(=O)OC3	25.8%	14.5%	14%	16.6%	23.6%	3.32%						
COc1cc2c(OCCOCCNC(=O)[C@@H]3CC(F)(F)CN3)c3c(c(-c4ccc5c(c4)OCO5)c2cc1OC)C(=O)OC3	2.62%	22.3%	19.9%	35.3%	41.7%	8.13%						
COc1cc2c(OCCOCCNC(=O)C3(F)CNC3)c3c(c(-c4ccc5c(c4)OCO5)c2cc1OC)C(=O)OC3	9.95%	10.8%	10.7%	32.6%	19.5%	3.51%						
COc1cc2c(O[C@@H]3O[C@@H]4CO[C@@H](c5ccc(C)s5)O[C@H]4[C@H](O)[C@H]3O)c3c(c(-c4ccc5c(c4)OCO5)c2cc1OC)C(=O)OC3	32.4%	57.2%	40.1%	46.2%	41%	9.5%						
COc1cc2c(O[C@@H]3O[C@@H]4CO[C@@H](c5csc(Br)c5)O[C@H]4[C@H](O)[C@H]3O)c3c(c(-c4ccc5c(c4)OCO5)c2cc1OC)C(=O)OC3	78.3%	57.6%	49.9%	72.3%	58.4%	20.8%	14.5 nM	6.07 nM	7.33 nM	16.4 nM	86.4 nM	3680 nM
COc1cc2c(O[C@@H]3O[C@@H]4CO[C@@H](c5ccc(SC)cc5)O[C@H]4[C@H](O)[C@H]3O)c3c(c(-c4ccc5c(c4)OCO5)c2cc1OC)C(=O)OC3	35.9%	57.1%	47.4%	41.1%	35.4%	6.84%						
COc1cc2c(O[C@@H]3O[C@@H]4CO[C@@H](C5CCCCC5)O[C@H]4[C@H](O)[C@H]3O)c3c(c(-c4ccc5c(c4)OCO5)c2cc1OC)C(=O)OC3	50.5%	62.1%	40.6%	46.6%	47.4%	11.5%	11.6 nM	14.8 nM	35.2 nM	29.7 nM	15.2 nM	4670 nM
COc1cc2c(O[C@@H]3O[C@@H]4CO[C@@H](C5CCOCC5)O[C@H]4[C@H](O)[C@H]3O)c3c(c(-c4ccc5c(c4)OCO5)c2cc1OC)C(=O)OC3	35.5%	58.9%	28.9%	35.4%	24.6%	6.66%						
COc1cc([C@@H]2c3cc4c(cc3[C@@H](O[C@@H]3O[C@@H]5CO[C@@H](C)O[C@H]5[C@H](O)[C@H]3O)[C@H]3COC(=O)[C@H]23)OCO4)cc(OC)c1O [ETOPOSIDE]							7490 nM	> 10000 nM	1700 nM	3700 nM	693 nM	> 10000 nM
COc1cc2c(OCCOCCNC(=O)[C@H]3[C@@H]4CNC[C@@H]43)c3c(c(-c4ccc5c(c4)OCO5)c2cc1OC)C(=O)OC3	2.26%	7.38%	6.67%	17.5%	14.7%	3.53%						
COc1cc2c(OCCOCCNC(=O)CON)c3c(c(-c4ccc5c(c4)OCO5)c2cc1OC)C(=O)OC3	33%	18.7%	23.5%	18.7%	31.8%	9.46%						
